Source: patent US8822534B2, “Substituted aminopropionic derivatives as neprilysin inhibitors” (priority 2009, dated 2014)

Biological target: recombinant human neutral endopeptidase (NEP, EC 3.4.24.11) (Homo sapiens (Human), UniProt P08473)
Test: in vitro inhibition of recombinant human neutral endopeptidase (fluorescence lifetime assay)
Type: biochemical
Source text: The activity of a compound according to the present invention can be assessed by the following in vitro & in vivo methods and/or by the following in vitro & in vivo methods well-described in the art. See A fluorescence lifetime-based assay for protease inhibitor profiling on human kallikrein 7 Doering K, Meder G, Hinnenberger M, Woelcke J, Mayr L M, Hassiepen U Biomol Screen.
In particular, the in vitro inhibition of recombinant human neutral endopeptidase (NEP, EC 3.4.24.11) can be determined as follows: […]

Chain of recombinant human neutral endopeptidase (NEP, EC 3.4.24.11) (P08473 whole entry): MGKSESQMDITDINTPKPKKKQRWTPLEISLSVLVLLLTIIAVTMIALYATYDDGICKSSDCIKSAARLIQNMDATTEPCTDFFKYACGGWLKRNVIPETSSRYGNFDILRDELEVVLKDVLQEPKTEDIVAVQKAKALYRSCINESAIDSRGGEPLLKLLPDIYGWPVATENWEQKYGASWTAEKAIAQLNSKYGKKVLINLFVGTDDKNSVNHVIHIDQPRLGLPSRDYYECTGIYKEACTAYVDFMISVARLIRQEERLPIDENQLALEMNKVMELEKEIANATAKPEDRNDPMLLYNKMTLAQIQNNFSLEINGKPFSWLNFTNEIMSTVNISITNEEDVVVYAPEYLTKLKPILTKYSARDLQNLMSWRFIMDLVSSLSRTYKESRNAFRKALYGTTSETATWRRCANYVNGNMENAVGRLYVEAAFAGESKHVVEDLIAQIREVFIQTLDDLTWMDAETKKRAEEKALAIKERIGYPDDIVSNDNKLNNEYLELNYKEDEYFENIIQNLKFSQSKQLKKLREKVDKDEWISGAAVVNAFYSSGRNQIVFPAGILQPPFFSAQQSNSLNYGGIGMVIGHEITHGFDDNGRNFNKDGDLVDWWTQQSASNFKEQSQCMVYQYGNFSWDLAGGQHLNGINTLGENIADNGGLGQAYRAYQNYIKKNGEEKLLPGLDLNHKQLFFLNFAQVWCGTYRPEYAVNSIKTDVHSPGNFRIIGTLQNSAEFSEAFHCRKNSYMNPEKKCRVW

## O=C(O)C[C@@H](Cc1ccc(-c2cccc(Cl)c2)cc1)NC(=O)CCC(=O)Oc1ccc2c(c1)CCC2 [Example 3-27]
  IC50: 0.015 µM
